Experimental data from US10647680B2, “Urea compound, preparation method therefor and medical use thereof” (Ancureall Pharmaceutical (Shanghai) Co., Ltd., priority 2016, dated 2020).
Where two headings read alike, the source gives them in different places.

What was measured:
[1] = tested on: RS4; 11 (FLT3 wild type); test: In vitro growth inhibition (GI50), RS4; 11; format: cell-based, human; settings: for GI50: Homo sapiens; for GI50 value, RS4; 11 (in words) / inhibitory effect on RS4; 11: FLT3 wild type high-expressing cells RS4; for inhibitory effect on RS4; 11: 11, under high concentrations
[2] = tested on: NCI-H2170 (HER2/ErbB2 amp); test: In vitro growth inhibition (GI50), NCI-H2170; format: cell-based; settings: Homo sapiens
Source text: Tumor cell line is an effective cell model for studying the inhibition of tumor cell growth or proliferation in vitro. In the present invention, a representative tumor cell line was selected to determine the cell growth inhibition activity of the present compound. All cell lines used were from ATCC, DSMZ, and the Cell Bank of the Chinese Academy of Sciences. Cell culture conditions and methods were in accordance with the requirements of each cell line. Cells were subcultured in vitro for no more than 3 passages each time, and as required, single-clone purification and identification of cell lines could be carried out.
The cell culture media used were RPMI1640 (Gibco), MEM (Gibco), McCOY'S5A (Gibco), and IMDM (Gibco). The complete medium was prepared by supplement with 5˜20% fetal calf serum (Gibco), 1% double-antibiotics (10000 units/mL penicillin and 10000 units/mL), 2 mM glutamine or 1 mM sodium pyruvate, respectively.
Human gastric cancer cell line NCI-N87 (HER2/ErbB2 amp, ATCC), human breast cancer cell line HCC1954 (HER2/ErbB2 amp, ATCC) and ZR-75-30 (HER2/ErbB2 amp, ATCC), human adenocarcinoma cell line AU565 (HER2/ErbB2 amp, ATCC), human lung squamous cell carcinoma cell line NCI-H2170 (HER2/ErbB2 amp, ATCC), human bronchioalveolar adenocarcinoma cell line NCI-H1781 (HER2/ErbB2 Ins G776V,C mutant type, ATCC) were cultured with a 1×RPMI1640 complete medium (10% FBS), respectively. Human lung adenocarcinoma cell line Calu-3 (HER2/ErbB2 amp, ATCC) was cultured with 1×MEM, 10% FBS, 1% double antibody, 1% NEAA (Gibco), 2 mM glutamine and 1 mM sodium pyruvate. The human breast cancer cell line SK-BR-3 (HER2/ErbB2 amp, ATCC) was cultured with a McCOY'S5A complete medium (10% FBS).
Adherent cells were digested with 0.25% pancreatin-EDTA (Gibco). The suspension cells were collected by centrifugation. The supernatant was discarded and the cell pellet was resuspended and counted. Different cell concentrations (5˜10×10^4 cells/mL) were prepared according to the growth cycle of each cell line and then seeded on a 96-well plate (Corning), 100 μL/well. The cells were incubated overnight at 37° C., 5% CO2. The compounds were added to the cells on the second day with 2 wells in parallel. The final concentration of organic solvent shall not exceed 1%. The cells were continually incubated for 3 to 5 days, and then subjected to MTT assay.
The compound of the present invention and the control compound were dissolved in DMSO (Sigma) respectively, with the purity of more than 98%. The compound was stored in a concentration of 10 mM at −20° C. and diluted to 2- or 10-fold series prior to use.
Dojindo CCK8 reagent kit was used as MTT assay. THERMO […] FC meter was used as microplate reader.
For adherent cells, culture medium was removed and immediately replaced with the fresh prepared medium which contains 10% CCK8 reagent (100 μL/well). For the suspension cells, CCK8 was directly added to 10% of the final concentration. The cells were continually incubated for 1˜4 h. When a dark yellow color could be observed in the solvent control wells, the absorbance value at OD450 nm was measured and the cell growth rate was calculated according to the following formula: Cell Growth Rate (%)=100*(T−T0)/(C−T0) T=optical density of drug treatment cell well—optical density of blank control well; T0=optical density of cell well before drug treatment—optical density of blank control well; C=optical density of cell well of solvent control group—optical density of blank control well. The concentration value of 50% inhibition of cell growth (GI50) was calculated according to the drug concentration and cell growth rate curve. The experiment was independently repeated 1˜3 times, and subject to biological statistical analysis. 4. Experimental Results
Tumor cell growth inhibition test was performed by selecting representative compounds (compounds 4, 11, 12, 16, 27, 68, 71, 77, 79, 89 and 116 of the present invention). […]

[3] = tested on: U937 (FLT3 wild-type); test: In vitro growth inhibition (GI50), U937; format: cell-based; settings: Homo sapiens, U-937; Cell lines of leukemia; read-out: GI 50 U937 FLT 3(WT)
[4] = RS4-11, Cell lines of leukemia, read-out: GI 50 RS4: 11 FLT3 (WT)
[5] = FLT3 wild-type high expressing cell RS4, 11, Table 3, read-out: GI50 value, RS4, 11
[6] = RS4, 11, FLT3 WT, read-out: GI50

GI50 [1, 4]	GI50 [1, 5]	GI50 [1, 6]	GI50 [2]	GI50 [3]	GI50 value, RS4; 11 (in words) [1]; 11	Structure (SMILES)	inhibitory effect on RS4; 11 [1]
> 1000 nM	50 to 800 nM	768 nM	> 2500 nM	> 1000 nM		CC(C)(C)c1cc(NC(=O)Nc2ccc(-n3cnc4cc(OCCO)ccc43)cc2)[nH]n1 [Compound 79, 1-(5-tert-butyl-2H-pyrazol-3-yl)-3-{4-[5-(2-hydroxy-ethoxyl)-benzimidazol-1-yl]-phenyl]urea]	
> 1000 nM		2090 nM	> 2500 nM	> 1000 nM	micromolar range	CC(C)(C)c1cc(NC(=O)Nc2ccc(-n3cnc4cc(OCCN5CCOCC5)ccc43)cc2)[nH]n1 [Compound 89, 1-(5-tert-butyl-2H-pyrazol-3-yl)-3-{4-[5-(2-morpholin-4-yl-ethoxyl)-benzimidazol-1-yl]-phenyl}-urea]	no obvious inhibitory effect
100 to 1000 nM	50 to 800 nM	234 nM	> 2500 nM	100 to 1000 nM		CC(C)(C)c1cc(NC(=O)Nc2ccc(-n3cnc4cc(O)ccc43)cc2)no1 [Compound 4, 1-(5-tert-butyl-isoxazol-3-yl)-3-[4-(5-hydroxy-benzimidazol-1-yl)-phenyl]-urea]	
> 1000 nM		3500 nM	> 2500 nM	> 1000 nM	micromolar range	CC(C)(C)c1cc(NC(=O)Nc2ccc(-n3cnc4ccccc43)cc2)[nH]n1 [Compound 68, 1-(4-benzimidazol-1-yl-phenyl)-3-(5-tert-butyl-2H-pyrazol-3-yl)-urea]	no obvious inhibitory effect
> 1000 nM		2750 nM	> 2500 nM	> 1000 nM	micromolar range	COc1ccc2c(c1)ncn2-c1ccc(NC(=O)Nc2cc(C(C)(C)C)n[nH]2)cc1 [Compound 71, 1-(5-tert-butyl-2H-pyrazol-3-yl)-3-[4-(5-methoxyl-benzimidazol-1-yl)-phenyl]-urea]	no obvious inhibitory effect
> 1000 nM		1750 nM	> 2500 nM	> 1000 nM	micromolar range	CC(C)(C)c1cc(NC(=O)Nc2ccc(-n3cnc4cc(OCCN5CCOCC5)ccc43)cc2)no1 [Compound 16, 1-(5-tert-butyl-isoxazol-3-yl)-3-{4-[5-(2-morpholin-4-yl-ethoxyl)-benzimidazol-1-yl]-phenyl}-urea]	no obvious inhibitory effect
> 1000 nM		2100 nM	> 2500 nM	> 1000 nM	micromolar range	CC(C)(C)c1cc(N)n(C(=O)Nc2ccc(-n3cnc4ccccc43)cc2)n1 [Compound 116, 5-amino-3-tert-butyl-pyrazol-1-carboxylic acid (4-benzimidazol-1-yl-phenyl)-amide]	no obvious inhibitory effect
10 to 100 nM	50 to 800 nM	57.4 nM	> 2500 nM	> 1000 nM		CC(C)(C)c1cc(NC(=O)Nc2ccc(-n3cnc4cc(OCCO)ccc43)cc2)no1 [Compound 11, 1-(5-tert-butyl-isoxazol-3-yl)-3-{4-[5-(2-hydroxy-ethoxyl)-benzimidazol-1-yl]-phenyl]-urea]	
> 1000 nM		2380 nM	> 2500 nM	> 1000 nM	micromolar range	CC(C)(C)c1cc(NC(=O)Nc2ccc(-n3cnc4ccc(OCCN5CCOCC5)cc43)cc2)no1 [Compound 27, 1-(5-tert-butyl-isoxazol-3-yl)-3-{4-[6-(2morpholin-4-yl-ethoxyl)-benzimidazol-1-yl]-phenyl}-urea]	no obvious inhibitory effect

Structure (SMILES)	GI50 [1, 4]	GI50 [1, 5]	GI50 [1, 6]	GI50 [2]	GI50 [3]	GI50 value, RS4; 11 (in words) [1]; 11	inhibitory effect on RS4; 11 [1]
COCCOc1ccc2c(c1)ncn2-c1ccc(NC(=O)Nc2cc(C(C)(C)C)n[nH]2)cc1 [Compound 77, 1-(5-tert-butyl-2H-pyrazol-3-yl)-3-{4-[5-(2-methoxyl-ethoxyl)-benzimidazol-1-yl]-phenyl}-urea]	> 1000 nM		2490 nM	> 2500 nM	> 1000 nM	micromolar range	no obvious inhibitory effect
